# Data published in article PMC12169614, “Exploring Long Arm Amide-Linked Side Chains in the Design of Antifungal Azole Inhibitors of Sterol 14α-Demethylase (CYP51)” (Journal of Medicinal Chemistry, 2025).
# Key:
# CYP3A4 = CYP3A4 (Homo sapiens, UniProt P08684); test: CYP IC50 profile, CYP3A4; format: biochemical; details: human liver drug metabolizing enzyme; read-out: CYP IC50 3A4
# CaCYP51 Y132H + K143R = CaCYP51 Y132H + K143R (Candida albicans, UniProt P10613, K143R/Y132H); test: Reconstituted CYP51 activity assay, Y132H + K143R; format: biochemical, C. albicans; details: 1 μM CaCyp51, 50 μM lanosterol; duplicate, mean ± SD
# Method: (§1) The reconstituted CYP51 assay previously described contained 1 μM CaCyp51, 2 μM Homo sapiens cytochrome P450 reductase and 50 μM lanosterol in a final volume of 500 μL. After the addition of azole in DMSO (2.5 μL), reactions were incubated at 37 °C for 10 min prior to initiation by the addition of 100 μL 20 mM β-NADPH-Na4. Sterol substrates and products were extracted with ethyl acetate, derivatized with N,O-bis(trimethylsilyl)-trifluoroacetamide (BSTFA)–trimethylchlorosilane (TMCS) (99:1) in the presence of anhydrous pyridine, and analyzed by GC/MS as described previously. IC50 determinations were performed in duplicate. Nonlinear regression of inhibitor concentration vs normalized response was calculated by GraphPad Prism 10.4.0 for Windows (GraphPad Software, Boston, Massachusetts, USA, www.graphpad.com).
# Y2459 OE CaCYP51 CaCpr = test: MIC80 determination, strain Y2459; format: cell-based, S. cerevisiae
# Method in brief: (§2)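 Growth inhibition was scored by OD600 after incubation at 30 °C and 200 rpm, lasting 24 h for C. albicans and 48 h for S. cerevisiae strains, starting from OD600 0.005 (1.5 × 10^4 CFU). Each MIC80 reflects triplicates of 4-clone pools in three separate experiments.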
# [1] = system: Y2300 ScCYP51 overexpressed; test: Agarose (disk) diffusion assay, strain Y2300; format: cell-based, S. cerevisiae; details: 10 nmol/disk, 30 °C, 48 h
# From the text: (§3) Final compounds were screened as racemic mixtures using agarose diffusion assays to visualize their inhibitory activity against a panel of recombinant S. cerevisiae strains i.e., S. cerevisiae strains expressing control levels of wild-type CYP51 (ScCYP51), overexpressed wild-type ScCYP51, overexpressed azole-resistant ScCYP51 Y140F/H mutations and overexpressed C. albicans efflux pumps MDR1a or CDR1B (Figure and Table S1).
# (§4) The susceptibilities of S. cerevisiae and Candida species strains to azole compounds were observed as zones of growth inhibition in agarose diffusion assays. The disk diffusion assays were carried out as described by Keniya et al. Complete supplement mixture (CSM) agarose (0.6% agarose [wt/vol]; 20 mL of synthetic defined medium (SD); pH 6.8–7) was solidified in a rectangular Petri dish which was overlaid with CSM agarose (0.6% [wt/vol]; 5 mL; pH 6.8–7) seeded with yeast cells at an optical density (OD600) of 0.008 (118,000 cells per 1 mL of overlay). Azole compounds (10 nmol/disk) were applied to sterile BBL paper disks (Becton Dickinson Co., Sparks, MD) and placed on solidified overlays. Cell growth was assessed after incubation at 30 °C for 48 h.
# Y2651 OE CYP51 F5 RaCPR = test: MIC80 determination, strain Y2651; format: cell-based, S. cerevisiae; details: Saccharomyces cerevisiae
# Method in brief: as §2
# CaCYP51 Y132F = CaCYP51 Y132F (Candida albicans, UniProt P10613, Y132F); test: Reconstituted CYP51 activity assay, Y132F; format: biochemical, C. albicans; details: 1 μM CaCyp51, 50 μM lanosterol; duplicate, mean ± SD
# Method: as §1
# [2] = system: Y2301 ScCYP51 Y140F mutant; test: Agarose (disk) diffusion assay, strain Y2301; format: cell-based, S. cerevisiae; details: 10 nmol/disk, 30 °C, 48 h
# From the text: as §3, §4
# Y2513 OE ScCYP51 Y140H = test: MIC80 determination, strain Y2513; format: cell-based, S. cerevisiae; details: Saccharomyces cerevisiae
# Method in brief: as §2
# Y2768 OE CauCYP51 Y132F = test: MIC80 determination, strain Y2768; format: cell-based, S. cerevisiae
# Method: (§5) Cells were seeded at an OD600 nm of 0.005 (1.5 × 10^4 CFU), and the plates were incubated at 30 °C with shaking at 200 rpm for 48 h for S. cerevisiae strains and 24 h for C. albicans . Cell growth was assessed by measuring the OD600 nm using a Synergy 2 multimode plate reader (BioTek Instruments, VT, USA). Each MIC80 was determined using triplicate measurements for pools of 4 clones of each strain in three separate experiments.
# Y611 FHB3 = test: MIC80 determination, C. albicans clinical isolate Y611 FHB3; format: cell-based; details: Candida albicans, 24 h, pH 7
# Method in brief: as §2
# Y2649 OE CYP51 F1 RaCPR = test: MIC80 determination, strain Y2649; format: cell-based, S. cerevisiae
# Method in brief: as §2
# Y71 SC5314 = test: MIC80 determination, C. albicans clinical isolate Y71 SC5314; format: cell-based; details: Candida albicans
# Method in brief: as §2
# Y2765 OE CauMDR1 = test: MIC80 determination, strain Y2765; format: cell-based, S. cerevisiae; details: Saccharomyces cerevisiae
# Method: as §5
# MCF-10A cells = test: Viability (CellTiter Blue) assay; format: cell-based, human; details: 48 h, 10 μM to 1 pM
# Method: Human epithelial breast cells, MCF-10A, were routinely cultured in DMEM/F-12 (Fisher Scientific, Loughborough, UK) containing 5% heat-inactivated horse serum (ThermoFisher Scientific, UK), 20 ng/mL hEGF (Merck Life Science, Dorset, UK), 500 ng/mL hydrocortisone (Merck Life Science, Dorset, UK) and 10 μg/mL insulin (Merck Life Science, Dorset, UK) under tissue culture conditions (37 °C, 5% CO2 in a humidified incubator). Cells were passaged upon reaching confluency using 0.25% Trypsin/EDTA (Fisher Scientific, Loughborough, UK) for a maximum of 15 passages from defrosting. […].
# Cells were seeded in 100 μL of complete medium per well in a black, flat-bottomed, 96-well tissue-culture-treated plate (Fisher Scientific, Loughborough, UK) at a density of 4000 cells/well and incubated under tissue culture conditions for 24 h. Cells were then treated by mixing in an additional 100 μL of drug/diluent control in complete medium to give final concentrations of 10 μM–1 pM. DMSO was used as a vehicle control, and as a positive toxic control, staurosporine was added at a final concentration of 10 μM. Cells were then incubated for 48 h under tissue culture conditions before the treatments were replaced with fresh media before performing the CellTiter Blue assay (Promega, Southampton, UK) was performed following the manufacturer's instructions. […]
# CYP2C9 = CYP2C9 (Homo sapiens, UniProt P11712); test: CYP IC50 profile, CYP2C9; format: biochemical; details: human liver drug metabolizing enzyme; read-out: CYP IC50 2C9
# Y610 FHB1 = test: MIC80 determination, C. albicans clinical isolate Y610 FHB1; format: cell-based; details: Candida albicans; C. albicans clinical isolate Y610 FHB1 (weakly expresses CaCDR1); pH 7, 24 h
# Method in brief: as §2
# CYP3A4, sequence (P08684 whole entry): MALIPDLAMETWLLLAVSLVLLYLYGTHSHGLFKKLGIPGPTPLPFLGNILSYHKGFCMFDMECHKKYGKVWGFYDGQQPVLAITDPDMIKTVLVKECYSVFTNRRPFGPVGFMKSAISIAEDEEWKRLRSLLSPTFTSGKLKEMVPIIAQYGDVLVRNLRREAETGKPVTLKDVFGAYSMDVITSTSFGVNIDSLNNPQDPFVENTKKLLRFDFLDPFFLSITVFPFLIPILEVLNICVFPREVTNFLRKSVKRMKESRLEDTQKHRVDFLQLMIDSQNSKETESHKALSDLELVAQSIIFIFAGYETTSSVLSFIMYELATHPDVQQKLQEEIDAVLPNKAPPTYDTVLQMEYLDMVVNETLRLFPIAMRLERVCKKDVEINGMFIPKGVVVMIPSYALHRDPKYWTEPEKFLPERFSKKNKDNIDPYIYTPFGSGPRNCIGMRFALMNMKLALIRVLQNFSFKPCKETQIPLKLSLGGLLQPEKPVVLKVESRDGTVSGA
# CYP2C9, sequence (P11712 whole entry): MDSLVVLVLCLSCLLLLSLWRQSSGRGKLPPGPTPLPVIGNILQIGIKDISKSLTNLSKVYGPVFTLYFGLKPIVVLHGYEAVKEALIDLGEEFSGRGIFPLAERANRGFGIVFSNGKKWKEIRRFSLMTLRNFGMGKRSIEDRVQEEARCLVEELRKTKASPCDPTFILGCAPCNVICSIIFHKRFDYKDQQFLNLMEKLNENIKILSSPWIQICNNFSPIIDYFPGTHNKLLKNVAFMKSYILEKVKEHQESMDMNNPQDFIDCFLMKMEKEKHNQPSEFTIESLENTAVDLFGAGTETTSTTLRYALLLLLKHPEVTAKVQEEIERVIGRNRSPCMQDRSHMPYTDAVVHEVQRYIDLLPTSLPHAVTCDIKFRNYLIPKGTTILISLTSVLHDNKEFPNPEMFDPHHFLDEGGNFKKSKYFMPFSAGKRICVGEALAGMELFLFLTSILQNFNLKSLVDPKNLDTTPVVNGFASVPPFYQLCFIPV
# CaCYP51 Y132H + K143R, sequence (P10613 whole entry Y132H/K143R): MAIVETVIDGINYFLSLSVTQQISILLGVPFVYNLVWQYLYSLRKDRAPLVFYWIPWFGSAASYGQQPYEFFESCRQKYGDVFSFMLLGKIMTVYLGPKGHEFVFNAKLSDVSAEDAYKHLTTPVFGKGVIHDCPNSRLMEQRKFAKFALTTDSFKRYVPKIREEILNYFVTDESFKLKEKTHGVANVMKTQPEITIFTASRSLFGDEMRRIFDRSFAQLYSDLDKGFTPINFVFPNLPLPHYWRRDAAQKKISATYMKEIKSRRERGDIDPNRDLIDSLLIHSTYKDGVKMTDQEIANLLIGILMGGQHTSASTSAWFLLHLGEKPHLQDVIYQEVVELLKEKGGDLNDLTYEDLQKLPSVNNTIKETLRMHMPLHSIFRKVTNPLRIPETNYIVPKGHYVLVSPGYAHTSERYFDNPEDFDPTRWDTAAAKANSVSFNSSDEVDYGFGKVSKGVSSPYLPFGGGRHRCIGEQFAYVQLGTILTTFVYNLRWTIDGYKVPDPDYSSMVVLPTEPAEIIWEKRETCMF
# CaCYP51 Y132F, sequence (P10613 whole entry Y132F): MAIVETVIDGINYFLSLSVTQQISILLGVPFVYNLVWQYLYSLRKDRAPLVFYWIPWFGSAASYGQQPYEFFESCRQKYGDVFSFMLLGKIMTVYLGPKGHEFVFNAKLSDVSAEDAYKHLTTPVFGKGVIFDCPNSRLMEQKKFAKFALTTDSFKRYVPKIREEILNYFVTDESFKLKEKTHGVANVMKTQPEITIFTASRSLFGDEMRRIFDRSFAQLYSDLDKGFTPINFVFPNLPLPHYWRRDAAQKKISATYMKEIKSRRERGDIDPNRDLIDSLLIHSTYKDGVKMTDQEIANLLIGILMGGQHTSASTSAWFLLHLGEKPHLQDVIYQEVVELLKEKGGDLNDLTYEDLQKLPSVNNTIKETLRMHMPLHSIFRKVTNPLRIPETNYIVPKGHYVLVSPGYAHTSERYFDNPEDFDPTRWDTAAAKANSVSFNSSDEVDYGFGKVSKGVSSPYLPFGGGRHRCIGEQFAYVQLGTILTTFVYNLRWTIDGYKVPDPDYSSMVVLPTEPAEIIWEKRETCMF
smiles,measurement,setting,value
"O=C(NCC(O)(Cn1cncn1)c1ccc(F)cc1F)c1ccc(-c2ccc(OC(F)(F)F)cc2)cc1 (stereo not drawn) [Compound 22, N-(2-(2,4-Difluorophenyl)-2-hydroxy-3-(1H-1,2,4-triazol-1-yl)propyl)-4’-(trifluoromethoxy)-[1,1’-biphenyl]-4-carboxamide]",IC50,CYP3A4,1620 ± 230 nM
same,IC50,CaCYP51 Y132H + K143R,8490 ± 1270 nM
same,MIC80,"Y2459 OE CaCYP51 CaCpr; Saccharomyces cerevisiae, 48 h, pH 6.8",0.054 ± 0.022 µM
same,MIC,Y2459 OE CaCYP51 CaCpr; read-out: MIC (nM) C. albicans model Y2459,54 ± 22 nM
same,zone of growth inhibition (inhibitory activity in words),[1],visible reduction in potency
same,MIC80,Y2651 OE CYP51 F5 RaCPR,1.36 ± 0.907 µM
same,IC50,CaCYP51 Y132F,1240 ± 37.9 nM
same,zone of growth inhibition (inhibitory activity in words),[2],unaffected inhibition zone size
same,MIC80,"Y2513 OE ScCYP51 Y140H; 48 h, pH 6.8",0.078 ± 0.056 µM
same,MIC,Y2513 OE ScCYP51 Y140H; read-out: MIC (nM) S. cerevisiae Y2513,78 ± 56 nM
same,MIC,"Y2768 OE CauCYP51 Y132F; Candidozyma auris, read-out: MIC (nM) C. auris model Y2768",241 ± 38 nM
same,MIC80,Y2768 OE CauCYP51 Y132F; Saccharomyces cerevisiae,0.241 ± 0.038 µM
same,MIC80,Y611 FHB3,1.65 µM
same,MIC,"Y2649 OE CYP51 F1 RaCPR; Rhizopus arrhizus, read-out: MIC (nM) R. arrhizus model Y2649",470 ± 240 nM
same,MIC80,Y2649 OE CYP51 F1 RaCPR; Saccharomyces cerevisiae,0.47 ± 0.24 µM
same,MIC,"Y71 SC5314; SC5314, supplement csv",40 nM
same,MIC80,"Y71 SC5314; C. albicans clinical isolate Y71 SC5314, pH 7, 24 h",0.04 µM
same,MIC80,Y2765 OE CauMDR1,0.059 ± 0.014 µM
same,cell viability (tolerance in words),MCF-10A cells,very well tolerated
same,IC50,CYP2C9,> 25000 nM
same,MIC80,Y610 FHB1,0.153 ± 0.067 µM
